Results as given in patent publication US20020198219A1, “2-pyridinamine compositions and related methods” (priority 2000, published 2002).

Test system: differentiated P19 neurons
Test: Drug screening using differentiated P19 cell assay (neuroprotection against glutamate/glycine)
Format: cell-based, murine
Conditions: for IC50: dose response 0.005-3 μM, 3 mM glutamate + 1 mM glycine, >1 = no maximum within highest dose (3 μM); for % neuroprotection (cell survival relative to control): screened at 1 micromolar, percentage of control cells surviving after 24 hours
Experimental: Commercially available chemical libraries (BioFocus PLC, UK) were screened using the methods described herein. The stock concentration of the compounds was about 400 μM in DMSO. The concentration of compounds used in the primary screen was 1 μM. […] Columns 4-11 received compounds at the following final concentrations (μM): 3, 1.2, 0.48, 0.192, 0.077, 0.031, 0.012 and 0.005. Each row contained a different compound for confirmation. Only rows B-G received compounds, and rows A and H remained untreated. Data are expressed as % neuroprotection=((compound-glutamate average)/(U0126-glutamate average)×100).
Only the 2-pyridinamines are the subject of this invention, although limited data for 4-pyrimidinamines are presented as well. “% Inh” indicates the percentage of control cells surviving after 24 hours, and represents the neuroprotective effect of the compounds screened at 1 micromolar concentration. IC50 relate to data from dose response experiments. […] ND refers to compounds not tested in dose-response experiments. […]

Row | SMILES | IC50 | % neuroprotection (cell survival relative to control) | IC50 (Mus musculus, Neuron)
1 | Oc1ccc(-c2ccc(Nc3ccc(N4CCOCC4)cc3)nc2)cc1 [Cmpd 1] | 1080 nM | 84% | 
2 | COc1ccc(Nc2ccc(-c3ccc(O)cc3)cn2)cc1 [Cmpd 2] | 560 nM | 94% | 
3 | COc1ccc(Nc2ccc(-c3ccc(OC(F)(F)F)cc3)cn2)cc1 [Cmpd 3] | 510 nM | 94% | 
4 | FC(F)(F)Oc1ccc(-c2ccc(Nc3ccc4c(c3)OCCO4)nc2)cc1 [Cmpd 4] | 380 nM | 86% | 
5 | c1cc2c(cc1Nc1ccc(-c3ccc(N4CCOCC4)cc3)cn1)OCCO2 [Cmpd 5] | 284 nM | 80% | 
6 | CCCCCOc1ccc(Nc2ccc(-c3ccc(N4CCOCC4)cc3)cn2)cc1 [Cmpd 6, 2-pyridinamine, 5-[4-(4-morpholinyl)phenyl]-N-[4-(pentyloxy)phenyl]-] |  | 83% | 220 nM
7 | CCCCCOc1ccc(Nc2ccc(-c3ccc(N(C)C)cc3)cn2)cc1 [Cmpd 7, 2-pyridinamine, 5-[4-(dimethylamino)phenyl]-N-[4-(pentyloxy)phenyl]-] |  | 88% | 240 nM
8 | COc1ccc(Nc2ccc(-c3ccc(N(C)C)cc3)cn2)cc1 [Cmpd 8, 2-pyridinamine, 5-[4-(dimethylamino)phenyl]-N-(4-methoxyphenyl)-] |  | 83% | 200 nM
9 | CCCCCOc1ccc(Nc2ccc(-c3ccc(O)cc3)cn2)cc1 [Cmpd 9] | 560 nM | 84% | 
10 | CCCCCOc1ccc(Nc2ccc(-c3ccc(CCC(=O)O)cc3)cn2)cc1 [Cmpd 10, benzenepropanoic acid, 4-[6-[[4-(pentyloxy)phenyl]amino]-3-pyridinyl]-] |  | 105% | 230 nM
11 | COc1ccccc1-c1ccc(Nc2ccc3c(c2)OCCO3)nc1 [Cmpd 11] | 870 nM | 83% | 
12 | CCOc1cccc(-c2ccc(Nc3cc(OC)c(OC)c(OC)c3)nc2)c1 [Cmpd 12, 2-pyridinamine, 5-(3-ethoxyphenyl)-N-(3,4,5-trimethoxyphenyl)-] |  | 87% | 47 nM
13 | CCCCCOc1ccc(Nc2ccc(-c3ccc4c(c3)OCO4)cn2)cc1 [Cmpd 13, 2-pyridinamine, 5-(1,3-benzodioxol-5-yl)-N-[4-(pentyloxy)phenyl]-] |  | 98% | 260 nM
14 | CCCCCOc1ccc(Nc2ccc(-c3ccccc3OC)cn2)cc1 [Cmpd 14, 2-pyridinamine, 5-(2-methoxyphenyl)-N-[4-(pentyloxy)phenyl]-] |  | 90% | 220 nM
15 | FC(F)(F)Oc1ccc(-c2ccc(Nc3ccc(N4CCOCC4)cc3)nc2)cc1 [Cmpd 17] |  | 74% | 
16 | COc1ccc(Nc2ccc(-c3cccc(OC(F)(F)F)c3)cn2)cc1 [Cmpd 18] |  | 74% | 
17 | FC(F)(F)c1cc(-c2ccc(Nc3ccc(N4CCOCC4)cc3)nc2)cc(C(F)(F)F)c1 [Cmpd 21, 2-pyridinamine, 5-[3,5-bis(trifluoromethyl)phenyl]-N-[4-(4-morpholinyl)phenyl]-] |  | 95% | 210 nM
18 | c1ccc2sc(-c3ccc(Nc4ccc(N5CCOCC5)cc4)nc3)cc2c1 [Cmpd 22, 2-pyridinamine, 5-benzo[b]thien-2-yl-N-[4-(4-morpholinyl)phenyl]-] |  | 98% | 90 nM
19 | c1ccc2oc(-c3ccc(Nc4ccc(N5CCOCC5)cc4)nc3)cc2c1 [Cmpd 23] | 920 nM | 96% | 
20 | COc1cc(-c2ccc(Nc3ccc(N4CCOCC4)cc3)nc2)cc(OC)c1OC [Cmpd 24] | 1760 nM | 94% | 
21 | c1ccc2cc(-c3ccc(Nc4ccc(N5CCOCC5)cc4)nc3)ccc2c1 [Cmpd 25, 2-pyridinamine, N-[4-(4-morpholinyl)phenyl]-5-(2-naphthyl)-] |  | 100% | 84 nM
22 | Clc1cccc(-c2ccc(Nc3ccc(N4CCOCC4)cc3)nc2)c1Cl [Cmpd 26] | > 1000 nM | 107% | 
23 | c1ccc(Oc2ccccc2-c2ccc(Nc3ccc(N4CCOCC4)cc3)nc2)cc1 [Cmpd 28] | > 1000 nM | 83% | 
24 | Clc1ccc(-c2ccc(Nc3ccc(N4CCOCC4)cc3)nc2)cc1 [Cmpd 29] | > 1000 nM | 82% | 
25 | c1cc(N2CCOCC2)ccc1Nc1ccc(-c2ccc3c(c2)OCO3)cn1 [Cmpd 30] | > 1000 nM | 84% | 

Row | SMILES | IC50 | % neuroprotection (cell survival relative to control) | IC50 (Mus musculus, Neuron)
26 | Fc1ccc(-c2ccc(Nc3ccc(N4CCOCC4)cc3)nc2)cc1Cl [Cmpd 31] | > 1000 nM | 83% | 
27 | COc1ccccc1-c1ccc(Nc2ccc(N3CCOCC3)cc2)nc1 [Cmpd 32] | > 1000 nM | 100% | 
28 | FC(F)(F)Oc1cccc(-c2ccc(Nc3ccc(N4CCOCC4)cc3)nc2)c1 [Cmpd 33] | > 1000 nM | 89% | 
29 | COc1ccc(Nc2ccc(-c3ccccc3OC)cn2)cc1 [Cmpd 35] | > 1000 nM | 82% | 
30 | CCCCCOc1ccc(Nc2ccc(-c3cccc(N)c3)cn2)cc1 [Cmpd 36] | > 1000 nM | 98% | 
31 | CCCCCOc1ccc(Nc2ccc(-c3cccnc3)cn2)cc1 [Cmpd 37] |  | 84% | 
32 | CN(C)c1cccc(Nc2ccc(-c3ccc(N4CCN(C(=O)OC(C)(C)C)CC4)cc3)cn2)c1 [Cmpd 38] |  | 89% | 
33 | COc1cc(Nc2ccc(-c3ccc(N4CCN(C(=O)OC(C)(C)C)CC4)cc3)cn2)cc(OC)c1OC [Cmpd 40] |  | 77% | 
34 | CC(C)(C)OC(=O)N1CCN(c2ccc(-c3ccc(Nc4ccc5c(c4)OCCO5)nc3)cc2)CC1 [Cmpd 69] |  | 99% | 
35 | Oc1ccc(-c2ccc(Nc3ccc4c(c3)OCCO4)nc2)cc1 [Cmpd 70] |  | 93% | 
36 | COc1ccccc1-c1ccc(Nc2cc(OC)c(OC)c(OC)c2)nc1 [Cmpd 71] |  | 77% | 
37 | CCOc1cccc(-c2ccc(Nc3ccc4c(c3)OCCO4)nc2)c1 [Cmpd 73] |  | 76% | 
38 | COc1cc(Nc2ccc(-c3cccc(N(C)C)c3)cn2)cc(OC)c1OC [Cmpd 74] |  | 95% | 
39 | CCCCCOc1ccc(Nc2ccc(-c3cccc(N(C)C)c3)cn2)cc1 [Cmpd 75] |  | 88% | 
40 | CN(C)c1cccc(-c2ccc(Nc3ccc4c(c3)OCCO4)nc2)c1 [Cmpd 76] |  | 95% | 
41 | CCn1c2ccccc2c2cc(Nc3ccc(-c4ccc(N5CCOCC5)cc4)cn3)ccc21 [Cmpd 77] |  | 82% | 
42 | c1ccc(-c2ccc(-c3ccc(Nc4ccc(N5CCOCC5)cc4)nc3)cc2)cc1 [Cmpd 78] | 470 nM | 109% | 
43 | COc1ccc(-c2ccc(Nc3ccc(N4CCOCC4)cc3)nc2)cc1OC [Cmpd 79] | 460 nM | 110% | 
44 | Cc1ccc(-c2ccc(Nc3ccc(N4CCOCC4)cc3)nc2)cc1C [Cmpd 80] | 750 nM | 94% | 
45 | c1ccc2cc(-c3ccc(Nc4ccc5c(c4)OCCO5)nc3)ccc2c1 [Cmpd 81] | 470 nM | 107% | 
46 | COc1ccc(Nc2ccc(-c3ccccc3)cn2)cc1 [Cmpd 82] |  | 72% | 
47 | COc1ccc(Nc2ccc(-c3ccc(N4CCOCC4)cc3)cn2)cc1 [Cmpd 83] |  | 71% | 
48 | COc1cc(Nc2ccc(-c3ccc(C)c(C)c3)cn2)cc(OC)c1OC [Cmpd 84] | 490 nM | 85% | 
49 | Cc1ccc(-c2ccc(Nc3ccc4c(c3)OCCO4)nc2)cc1C [Cmpd 85] | > 1000 nM | 86% | 
50 | COc1ccc(Nc2ccc(-c3ccc(C)c(C)c3)cn2)cc1 [Cmpd 86] | > 1000 nM | 80% | 
